Test results: patent US5622962A, “5α-reductase inhibitors” (priority 1995, dated 1997)
Where two headings read alike, the source gives them in different places.

What was measured:
[1] = molecular target: T1, Type I 5α-Reductase from Human Scalp (Homo sapiens, UniProt P18405); assay: Human Type I 5α-reductase assay (conversion of [3H]-testosterone to 5α-reduced metabolites); type: biochemical; settings: for percent inhibition of Type I AR: 0.3 μM
T1 construct: Scalp punch biopsies from graft recipient sites were obtained from human hair transplant procedures; from tissue; host or cells: human scalp punch biopsies (hair transplant graft recipient sites), homogenate, 100,000×g pellet
T1 sequence (P18405 1-259): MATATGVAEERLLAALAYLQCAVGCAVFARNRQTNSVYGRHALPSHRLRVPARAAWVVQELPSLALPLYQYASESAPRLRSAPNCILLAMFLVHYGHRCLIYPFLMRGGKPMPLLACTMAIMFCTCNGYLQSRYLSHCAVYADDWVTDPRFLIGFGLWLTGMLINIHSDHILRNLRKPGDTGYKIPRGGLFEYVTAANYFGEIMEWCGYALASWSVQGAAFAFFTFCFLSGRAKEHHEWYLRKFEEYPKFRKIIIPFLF

[2] = molecular target: T2, Type II 5α-Reductase from Human Prostate (Homo sapiens, UniProt P31213); assay: Human Type II 5α-reductase assay (conversion of [3H]-testosterone to 5α-reduced metabolites); type: biochemical; settings: for percent inhibition of Type II AR: 0.3 μM
T2 construct: The same procedure as above was used for preparations using tissue from prostate surgery; from tissue; host or cells: human prostate tissue from surgery, homogenate, 100,000×g pellet
T2 sequence (P31213 1-254): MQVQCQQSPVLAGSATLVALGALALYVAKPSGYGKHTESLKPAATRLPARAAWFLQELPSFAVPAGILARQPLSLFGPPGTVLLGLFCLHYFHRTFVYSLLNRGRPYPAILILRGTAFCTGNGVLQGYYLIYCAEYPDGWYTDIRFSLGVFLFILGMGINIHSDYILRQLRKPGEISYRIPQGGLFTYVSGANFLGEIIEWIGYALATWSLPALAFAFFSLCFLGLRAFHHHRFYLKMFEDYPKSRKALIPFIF

[3] = pH 7.5, 0.3 μM, 50 nM [3H]-testosterone, pH 7.5, 25°, 180 min, compared to control reaction mixtures, read-out: percent inhibition of Type I AR
[4] = pH 5.5, 0.3 μM, sodium acetate pH 5.5, 25°, 30 min, compared to control reaction mixtures, read-out: percent inhibition of Type II AR
[5] = sodium acetate pH 5.5, 25°, 30 min, compared to control reaction mixtures
[6] = 50 nM [3H]-testosterone, pH 7.5, 25°, 180 min, compared to control reaction mixtures

Row | Structure (SMILES) | inhibition at 0.3 µM [1, 3] | inhibition at 0.3 µM [2, 4] | percent inhibition of Type II AR [2, 5] | percent inhibition of Type I AR [1, 6] | inhibition at 0.3 µM ([1]; pH 7.5, read-out: percent inhibition of Type I AR) | inhibition at 0.3 µM ([2]; pH 5.5, read-out: percent inhibition of Type II AR)
1 | Cc1ccc(-c2ccc3c(c2)CC[C@H]2N(C)C(=O)CC[C@]32C)cc1 [Example 51, (+)-(4aR)-(10bR)-4-methyl-8-(4-methylphenyl)-10b-methyl-1,2,3,4,4a,5,6,10b-octahydrobenzo[f]quinolin-3-one] | 91% | 14% | – | – | – | –
2 | CN1C(=O)CC[C@]2(C)c3ccc(-c4ccccc4C(F)(F)F)cc3CC[C@@H]12 [Example 43, (+)-(4aR)-(10bR)-4-methyl-8-(2-trifluoromethylphenyl)-10b-methyl-1,2,3,4,4a,5,6,10b-octahydrobenzo[f]quinolin-3-one] | 68% | 18% | – | – | – | –
3 | CN1C(=O)CC[C@]2(C)c3ccc(-c4ccc(Cl)c(Cl)c4)cc3CC[C@@H]12 [Example 77, (+)-(4aR)-(10bR)-4-methyl-8-(3,4-dichlorophenyl)-10b-methyl-1,2,3,4,4a,5,6,10b-octahydrobenzo[f]quinolin-3-one] | 88% | 46% | 33% | – | – | –
4 | CN1C(=O)CC[C@]2(C)c3ccc(Sc4nc5c(ccc6ccccc65)s4)cc3CC[C@@H]12 [Example 163, (+)-(4aR)-(10bR)-4-methyl-8-(2-naphtho<1,2-d>-thiazolylthio)-10b-methyl-1,2,3,4,4a,5,6,10b-octahydrobenzo[f]-quinolin-3-one] | 80% | 86% | – | – | – | –
5 | COc1cc(-c2ccc3c(c2)CC[C@H]2N(C)C(=O)CC[C@]32C)ccc1O [Example 36, (+)-(4aR)-(10bR)-4-methyl-8-(4-hydroxy-3-methoxyphenyl)-10b-methyl-1,2,3,4,4a,5,6,10b-octahydrobenzo[f]quinolin-3-one] | 41% | 52% | – | – | – | –
6 | CN1C(=O)CC[C@]2(C)c3ccc(C(c4ccccc4)c4ccccc4)cc3CC[C@@H]12 [Example 139, (4aR)-(10bR)-8-diphenylmethyl-4,10b-dimethyl-1,2,3,4,-4a,5,6,10b-octahydrobenzo[f]quinolin-3-one] | 30% | 59% | – | – | – | –
7 | CN1C(=O)CC[C@]2(C)c3ccc(C(=O)Nc4ccccc4)cc3CC[C@@H]12 [Example 143, (+)-(4aR)-(10bR)-4-methyl-8-(phenylcarboxamido)-10b-methyl-1,2,3,4,4a,5,6,10b-octahydrobenzo[f]quinolin-3-one] | 63% | 18% | – | – | – | –
8 | CN1C(=O)CC[C@]2(C)c3ccc(Sc4nc5cc([N+](=O)[O-])ccc5s4)cc3CC[C@@H]12 [Example 160, (+)-(4aR)-(10bR)-4-methyl-8-(5-nitro-2-benzothiazolylthio)-10b-methyl-1,2,3,4,4a,5,6,10b-octahydrobenzo[f]quinolin-3-one] | 61% | 38% | – | – | – | –
9 | CCCc1cccc2sc(Sc3ccc4c(c3)CC[C@H]3N(C)C(=O)CC[C@]43C)nc12 [Example 186, (+)-(4aR)-(10bR)-4-methyl-8-(4-propyl-2-benzothiazolylthio)-10b-methyl-1,2,3,4,4a,5,6,10b-octahydrobenzo[f]quinolin-3-one] | 90% | 79% | – | – | – | –
10 | CN1C(=O)CC[C@]2(C)c3ccc(Sc4cnccn4)cc3CC[C@@H]12 [Example 152, (+)-(4aR)-(10bR)-4-methyl-8-(2-pyrazinylthio)-10b-methyl-1,2,3,4,4a,5,6,10b-octahydrobenzo[f]quinolin-3-one] | 47% | 10% | – | – | – | –
11 | CN1C(=O)CC[C@]2(C)c3ccc(-c4c(F)c(F)c(F)c(F)c4F)cc3CC[C@@H]12 [Example 205, (+)-(4aR)-(10bR)-4-methyl-8-(2,3,4,5,6-pentafluorophenyl)-10b-methyl-1,2,3,4,4a,5,6,10b-octahydrobenzo[f]quinolin-3-one] | 100% | 37% | – | – | – | –
12 | Cc1cccc2sc(Sc3ccc4c(c3)CC[C@H]3N(C)C(=O)CC[C@]43C)nc12 [Example 159, (+)-(4aR)-(10bR)-4-methyl-8-(4-methyl-2-benzothiazolylthio)-10b-methyl-I, 2,3,4,4a,5,6,10b-octahydrobenzo[f]quinolin-3-one] | – | 87% | 83% | 87% | – | –
13 | CN1C(=O)CC[C@]2(C)c3ccc(-c4ccc(F)cc4C(F)(F)F)cc3CC[C@@H]12 [Example 31, (+)-(4aR)-(10bR)-4-methyl-8-(2-trifluoromethyl-4-fluorophenyl)-10b-methyl-1,2,3,4,4a,5,6,10b-octahydrobenzo[f]-quinolin-3-one] | – | – | – | – | 84% | 22%
14 | CN1C(=O)CC[C@]2(C)c3ccc(Sc4cc(-c5ccccc5)cc(-c5ccccc5)n4)cc3CC[C@@H]12 [Example 181, (+)-(4aR)-(10bR)-4-methyl-8-(2-[4,6-diphenyl]pyridylthio)-10b-methyl-1,2,3,4,4a,5,6,10b-octahydrobenzo[f]quinolin-3-one] | 63% | 31% | – | – | – | –
15 | CN1C(=O)CC[C@]2(C)c3ccc(Sc4n[nH]c5ccccc45)cc3CC[C@@H]12 [Example 156, (+)-(4aR)-(10bR)-4-methyl-8-(3-indazolylthio)-10b-methyl-1,2,3,4,4a,5,6,10b-octahydrobenzo[f]quinolin-3-one] | 71% | 70% | – | – | – | –
16 | CN1C(=O)CC[C@]2(C)c3ccc(-c4ccc5cc(OCc6ccccc6)ccc5c4)cc3CC[C@@H]12 [Example 62, (+)-(4aR)-(10bR)-4-methyl-8-(2-[6-benzyloxy]naphthyl)-10b-methyl-1,2,3,4,4a,5,6,10b-octahydrobenzo[f]quinolin-3-one] | 45% | 42% | – | – | – | –

The next lines start with results.

Row | inhibition at 0.3 µM [1, 3] | inhibition at 0.3 µM [2, 4] | percent inhibition of Type II AR [2, 5] | percent inhibition of Type I AR [1, 6] | Structure (SMILES) | inhibition at 0.3 µM ([1]; pH 7.5, read-out: percent inhibition of Type I AR) | inhibition at 0.3 µM ([2]; pH 5.5, read-out: percent inhibition of Type II AR)
17 | 55% | 17% | – | – | CN1C(=O)CC[C@]2(C)c3ccc(-c4cccc5ncccc45)cc3CC[C@@H]12 [Example 240, (+)-(4aR)-(10bR)-4-methyl-8-(5-quinolinyl)-10b-methyl-1,2,3,4,4a,5,6,10b-octahydrobenzo[f]quinolin-3-one] | – | –
18 | 69% | 36% | – | – | CN1C(=O)CC[C@]2(C)c3ccc(-c4nc5ccccc5o4)cc3CC[C@@H]12 [Example 251, (+)-(4aR)-(10bR)-4-methyl-8-(2-benzoxazolyl)-10b-methyl-1,2,3,4,4a,5,6,10b-octahydrobenzo[f]quinolin-3-one] | – | –
19 | 45% | 16% | – | – | CN1C(=O)CC[C@]2(C)c3ccc(-c4ccc5c(c4)CCC5=O)cc3CC[C@@H]12 [Example 207, (+)-(4aR)-(10bR)-4-methyl-8-(1-oxo-5-indanyl)-10b-methyl-1,2,3,4,4a,5,6,10b-octahydrobenzo[f]quinolin-3-one] | – | –
20 | 38% | 18% | – | – | CN1C(=O)CC[C@]2(C)c3ccc(-c4nc5ccccc5[nH]4)cc3CC[C@@H]12 [Example 256, (+)-(4aR)-(10bR)-4-methyl-8-(2-benzimidazolyl)-10b-methyl-1,2,3,4,4a,5,6,10b-octahydrobenzo[f]quinolin-3-one] | – | –
21 | 97% | 33% | – | 100% | CN1C(=O)CC[C@]2(C)c3ccc(CCc4ccccc4)cc3CC[C@@H]12 [Example 280, (4aR)-(10bR)-4,10b-dimethyl-8-(2-phenylethyl)-1,2,3,4,4a,5,6,10b-octahydrobenzo[f]quinolin-3-one] | – | –
22 | 84% | 42% | – | – | CN1C(=O)CC[C@]2(C)c3ccc(-c4ccc(NC(=O)C(C)(C)C)nc4)cc3CC[C@@H]12 [Example 215, (+)-(4aR)-(10bR)-4-methyl-8-[2-(t-butylcarbonylamino)-5-pyridinyl]-10b-methyl-1,2,3,4,4a,5,6,10b-octahydrobenzo[f]-quinolin-3-one] | – | –
23 | 25% | 8% | – | – | C[C@]12CCC(=O)N[C@@H]1CCc1cc(CSc3nc4ccccc4s3)ccc12 [Example 290, (4aR)-(10bR)-8-(2-benzothiazolyl)thiomethyl-10b-methyl-1,2,3,4,4a,5,6,10b-octahydrobenzo[f]quinolin-3-one] | – | –
24 | 8% | 17% | – | – | CN1C(=O)CC[C@]2(C)c3ccc(NC(=O)c4ccc([N+](=O)[O-])cc4)cc3CC[C@@H]12 [Example 269, (4aR)-(10bR)-4,10b-dimethyl-8-(4-nitrobenzoylamino)-1,2,3,4,4a,5,6,10b-octahydrobenzo[f]quinolin-3-one] | – | –
25 | 82% | 37% | – | – | CN1C(=O)CC[C@]2(C)c3ccc(Cc4ccccc4)cc3CC[C@@H]12 [Example 287, (4aR)-(10bR)-8-benzyl-4,10b-dimethyl-1,2,3,4,4a, 5,6, 10b-octahydrobenzo[f]quinolin-3-one] | – | –
